# Test results published in the supplement of paper PMC10307832.
# How the values were obtained:
# Assay in all cases: relative viability (nuclei count vs DMSO), 5 days (fraction); higher = more cells survive
# BX 795 = compound: O=C(NCCCNc1nc(Nc2cccc(NC(=O)N3CCCC3)c2)ncc1I)c1cccs1 [BX 795]
# How it was run: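 Only plates meeting two conditions passed: control CV below 25% and at least one doubling. Lung cancer cell lines, kept overnight at 37 °C in 1536-well plates, were pinned with five library-drug doses (not always all listed) √10 apart on vehicle-anchored plates and grown 5 days without medium change. A one-step fix, permeabilisation and Hoechst stain preceded 4× imaging and MetaXpress nuclear counting. Viability equals treated-well nuclei divided by vehicle-well nuclei, as the median over plates.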
# BX 795 + Bortezomib = compound: O=C(NCCCNc1nc(Nc2cccc(NC(=O)N3CCCC3)c2)ncc1I)c1cccs1 [BX 795] + CC(C)C[C@H](NC(=O)[C@H](Cc1ccccc1)NC(=O)c1cnccn1)B(O)O [Bortezomib] (partner 0.002 µM)
# How it was run: (§1)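 Lung cancer cell lines, seeded in 1536-well plates, were treated the following day by pin tool with a single drug or with five library-drug doses (not always all listed) in √10 steps on top of a fixed anchor-drug dose. Cells were fixed and nuclei stained in one step after 5 days, and nuclei were counted. Relative viability is the nuclei count for treated wells divided by that for vehicle wells, reported as medians of duplicate plates.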
# BX 795 + Navitoclax = compound: O=C(NCCCNc1nc(Nc2cccc(NC(=O)N3CCCC3)c2)ncc1I)c1cccs1 [BX 795] + CC1(C)CCC(c2ccc(Cl)cc2)=C(CN2CCN(c3ccc(C(=O)NS(=O)(=O)c4ccc(N[C@H](CCN5CCOCC5)CSc5ccccc5)c(S(=O)(=O)C(F)(F)F)c4)cc3)CC2)C1 [Navitoclax] (partner 0.5 µM)
# How it was run: as §1
# BX 795 + Foretinib = compound: O=C(NCCCNc1nc(Nc2cccc(NC(=O)N3CCCC3)c2)ncc1I)c1cccs1 [BX 795] + COc1cc2c(Oc3ccc(NC(=O)C4(C(=O)Nc5ccc(F)cc5)CC4)cc3F)ccnc2cc1OCCCN1CCOCC1 [Foretinib] (partner 0.25 µM)
# How it was run: as §1
# BX 795 + Lapatinib = compound: O=C(NCCCNc1nc(Nc2cccc(NC(=O)N3CCCC3)c2)ncc1I)c1cccs1 [BX 795] + CS(=O)(=O)CCNCc1ccc(-c2ccc3ncnc(Nc4ccc(OCc5cccc(F)c5)c(Cl)c4)c3c2)o1 [Lapatinib] (partner 2 µM)
# How it was run: as §1
# BX 795 + Pictilisib = compound: O=C(NCCCNc1nc(Nc2cccc(NC(=O)N3CCCC3)c2)ncc1I)c1cccs1 [BX 795] + CS(=O)(=O)N1CCN(Cc2cc3nc(-c4cccc5[nH]ncc45)nc(N4CCOCC4)c3s2)CC1 [Pictilisib] (partner 1 µM)
# How it was run: as §1
# BX 795 + Crizotinib = compound: O=C(NCCCNc1nc(Nc2cccc(NC(=O)N3CCCC3)c2)ncc1I)c1cccs1 [BX 795] + C[C@@H](Oc1cc(-c2cnn(C3CCNCC3)c2)cnc1N)c1c(Cl)ccc(F)c1Cl [Crizotinib] (partner 1 µM)
# How it was run: as §1
# BX 795 + Linsitinib = compound: O=C(NCCCNc1nc(Nc2cccc(NC(=O)N3CCCC3)c2)ncc1I)c1cccs1 [BX 795] + C[C@]1(O)C[C@@H](c2nc(-c3ccc4ccc(-c5ccccc5)nc4c3)c3c(N)nccn32)C1 [Linsitinib] (partner 1 µM)
# How it was run: as §1
# BX 795 + Alpelisib = compound: O=C(NCCCNc1nc(Nc2cccc(NC(=O)N3CCCC3)c2)ncc1I)c1cccs1 [BX 795] + Cc1nc(NC(=O)N2CCC[C@H]2C(N)=O)sc1-c1ccnc(C(C)(C)C(F)(F)F)c1 [Alpelisib] (partner 2 µM)
# How it was run: as §1
# BX 795 + Olaparib = compound: O=C(NCCCNc1nc(Nc2cccc(NC(=O)N3CCCC3)c2)ncc1I)c1cccs1 [BX 795] + O=C(c1cc(Cc2n[nH]c(=O)c3ccccc23)ccc1F)N1CCN(C(=O)C2CC2)CC1 [Olaparib] (partner 8 µM)
# How it was run: as §1
# BX 795 + Luminespib = compound: O=C(NCCCNc1nc(Nc2cccc(NC(=O)N3CCCC3)c2)ncc1I)c1cccs1 [BX 795] + CCNC(=O)c1noc(-c2cc(C(C)C)c(O)cc2O)c1-c1ccc(CN2CCOCC2)cc1 [Luminespib] (partner 0.01 µM)
# How it was run: as §1
# BX 795 + OSI-027 = compound: O=C(NCCCNc1nc(Nc2cccc(NC(=O)N3CCCC3)c2)ncc1I)c1cccs1 [BX 795] + COc1cccc2cc(-c3nc([C@H]4CC[C@H](C(=O)O)CC4)n4ncnc(N)c34)[nH]c12 [OSI-027] (partner 0.5 µM)
# How it was run: as §1
# BX 795 + Tozasertib = compound: O=C(NCCCNc1nc(Nc2cccc(NC(=O)N3CCCC3)c2)ncc1I)c1cccs1 [BX 795] + Cc1cc(Nc2cc(N3CCN(C)CC3)nc(Sc3ccc(NC(=O)C4CC4)cc3)n2)n[nH]1 [Tozasertib] (partner 0.1 µM)
# How it was run: as §1
# BX 795 + Dasatinib = compound: O=C(NCCCNc1nc(Nc2cccc(NC(=O)N3CCCC3)c2)ncc1I)c1cccs1 [BX 795] + Cc1nc(Nc2ncc(C(=O)Nc3c(C)cccc3Cl)s2)cc(N2CCN(CCO)CC2)n1 [Dasatinib] (partner 0.075 µM)
# How it was run: as §1
# BX 795 + Phenformin = compound: O=C(NCCCNc1nc(Nc2cccc(NC(=O)N3CCCC3)c2)ncc1I)c1cccs1 [BX 795] + N=C(N)NC(=N)NCCc1ccccc1 [Phenformin] (partner 250 µM)
# How it was run: as §1
cell line,measurement,setting,value
NCI-H1299,relative viability,BX 795; 0.04 µM,0.972
same,relative viability,BX 795; 0.1265 µM,1.03
same,relative viability,BX 795; 0.4 µM,1.05
same,relative viability,BX 795; 1.265 µM,0.883
same,relative viability,BX 795 + Bortezomib; first compound 0.04 µM,1.08
same,relative viability,BX 795 + Bortezomib; first compound 0.1265 µM,1.01
same,relative viability,BX 795 + Bortezomib; first compound 0.4 µM,1.06
same,relative viability,BX 795 + Bortezomib; first compound 1.265 µM,0.938
same,relative viability,BX 795 + Navitoclax; first compound 0.04 µM,1.05
same,relative viability,BX 795 + Navitoclax; first compound 0.1265 µM,0.996
same,relative viability,BX 795 + Navitoclax; first compound 0.4 µM,1.06
same,relative viability,BX 795 + Navitoclax; first compound 1.265 µM,0.926
same,relative viability,BX 795 + Foretinib; first compound 0.04 µM,1.13
same,relative viability,BX 795 + Foretinib; first compound 0.1265 µM,1.09
same,relative viability,BX 795 + Foretinib; first compound 0.4 µM,1.16
same,relative viability,BX 795 + Foretinib; first compound 1.265 µM,0.876
same,relative viability,BX 795 + Lapatinib; first compound 0.04 µM,0.885
same,relative viability,BX 795 + Lapatinib; first compound 0.1265 µM,0.977
same,relative viability,BX 795 + Lapatinib; first compound 0.4 µM,1.02
same,relative viability,BX 795 + Lapatinib; first compound 1.265 µM,0.798
same,relative viability,BX 795 + Pictilisib; first compound 0.04 µM,0.759
same,relative viability,BX 795 + Pictilisib; first compound 0.1265 µM,0.747
same,relative viability,BX 795 + Pictilisib; first compound 0.4 µM,0.751
same,relative viability,BX 795 + Pictilisib; first compound 1.265 µM,0.399
same,relative viability,BX 795 + Crizotinib; first compound 0.04 µM,1
same,relative viability,BX 795 + Crizotinib; first compound 0.1265 µM,0.933
same,relative viability,BX 795 + Crizotinib; first compound 0.4 µM,1.01
same,relative viability,BX 795 + Crizotinib; first compound 1.265 µM,0.674
same,relative viability,BX 795 + Linsitinib; first compound 0.04 µM,0.983
same,relative viability,BX 795 + Linsitinib; first compound 0.1265 µM,0.968
same,relative viability,BX 795 + Linsitinib; first compound 0.4 µM,0.987
same,relative viability,BX 795 + Linsitinib; first compound 1.265 µM,0.767
same,relative viability,BX 795 + Alpelisib; first compound 0.04 µM,1.05
same,relative viability,BX 795 + Alpelisib; first compound 0.1265 µM,1.09
same,relative viability,BX 795 + Alpelisib; first compound 0.4 µM,1.07
same,relative viability,BX 795 + Alpelisib; first compound 1.265 µM,1
same,relative viability,BX 795 + Olaparib; first compound 0.04 µM,1.02
same,relative viability,BX 795 + Olaparib; first compound 0.1265 µM,0.985
same,relative viability,BX 795 + Olaparib; first compound 0.4 µM,0.918
same,relative viability,BX 795 + Olaparib; first compound 1.265 µM,0.637
NCI-H1623,relative viability,BX 795; 0.04 µM,1.15
same,relative viability,BX 795; 0.1265 µM,0.972
same,relative viability,BX 795; 0.4 µM,0.989
same,relative viability,BX 795; 1.265 µM,0.892
same,relative viability,BX 795 + Luminespib; first compound 0.04 µM,0.598
same,relative viability,BX 795 + Luminespib; first compound 0.1265 µM,0.511
same,relative viability,BX 795 + Luminespib; first compound 0.4 µM,0.5
same,relative viability,BX 795 + Luminespib; first compound 1.265 µM,0.572
same,relative viability,BX 795 + Foretinib; first compound 0.04 µM,0.913
same,relative viability,BX 795 + Foretinib; first compound 0.1265 µM,0.952
same,relative viability,BX 795 + Foretinib; first compound 0.4 µM,0.88
same,relative viability,BX 795 + Foretinib; first compound 1.265 µM,0.892
same,relative viability,BX 795 + OSI-027; first compound 0.04 µM,0.458
same,relative viability,BX 795 + OSI-027; first compound 0.1265 µM,0.421
same,relative viability,BX 795 + OSI-027; first compound 0.4 µM,0.402
same,relative viability,BX 795 + OSI-027; first compound 1.265 µM,0.466
same,relative viability,BX 795 + Tozasertib; first compound 0.04 µM,0.429
same,relative viability,BX 795 + Tozasertib; first compound 0.1265 µM,0.386
same,relative viability,BX 795 + Tozasertib; first compound 0.4 µM,0.392
same,relative viability,BX 795 + Tozasertib; first compound 1.265 µM,0.461
same,relative viability,BX 795 + Dasatinib; first compound 0.04 µM,0.537
same,relative viability,BX 795 + Dasatinib; first compound 0.1265 µM,0.572
same,relative viability,BX 795 + Dasatinib; first compound 0.4 µM,0.533
same,relative viability,BX 795 + Dasatinib; first compound 1.265 µM,0.512
same,relative viability,BX 795 + Phenformin; first compound 0.04 µM,0.611
same,relative viability,BX 795 + Phenformin; first compound 0.1265 µM,0.568
same,relative viability,BX 795 + Phenformin; first compound 0.4 µM,0.491
same,relative viability,BX 795 + Phenformin; first compound 1.265 µM,0.516
